Experimental data taken from patent publication US20060217443A1, “Method for preventing and/or treating vaginal and vulval infections” (Kimberly-Clark Worldwide, Inc., priority 2005, published 2006).
Read-outs that look alike come from different tables or passages of the source.

Legend:
[1] = system: Lactobacillus acidophilus; assay: Inhibition test in solution by measuring optical density, Lactobacillus acidophilus; assay type: cell-based; details: gallic acid 5 milligram/milliliter, 24 hours, FIG. 4
Description: A sample of Lactobacillus acidophilus, a desirable bacterium in the vaginal ecosystem, was also obtained from the American Type Culture Collection (ATCC), catalog number 4354, and was cultured in ATCC medium 416. […] Control and gallic acid solutions (0.9 milliliters) were filtered and added into separate culture tubes, and to these were added 0.1 milliliter of either the Candida albicans or Lactobacillus acidophilus suspension at a concentration of around 10^6 cfu/milliliter. The culture tubes were then incubated overnight at 37 degrees Celsius, whereafter the optical density was measured at 2, 4, 6 and 24 hours at 590 nanometers, by pippeting 100 microliters of the control or sample solutions into 96-well microplates, and then using a Molecular Devices of Sunnyvale, Calif. ThermoMax Microplate Reader to obtain the optical density readings at 590 nm wavelengths.

[2] = system: Lactobacillus acidophilus; assay: Zone-of-inhibition test, Lactobacillus acidophilus; assay type: cell-based
Description: (§1) A sample of Lactobacillus acidophilus, a desirable bacterium in the vaginal ecosystem, was also obtained from the American Type Culture Collection (ATCC), catalog number 4354, and was cultured in ATCC medium 416. A microorganism culture of 10^5 cfu (colony forming units)/milliliter in a 1× phosphate buffered saline (PBS) solution (diluted from 10× PBS LIQUID CONCENTRATE from VWR Cat. No. EM-6507] was prepared for each of Candida albicans and Lactobacillus acidophilus. One milliliter of each solution was plated on proper agar plates, depending on which microorganism was being tested. The agar plates were incubated at 35 degrees Celsius for four hours. Three 4 millimeter diameter wells were then punched into each agar plate. A test sample of 10 mg/ml gallic acid in sterilized 2-N-morpholino ethane sulfonic (MES, pH=4.7) buffer (0.1 M 2-[morpholino]-ethanesulfonic acid, 0.9 percent NaCl, pH 4.7, prepared from BupHTM MES Buffer Saline Pack from Cat. No. 28390, Pierce Biotechnology, Inc., Rockford, Ill.) was added to one well of each plate. […] The plates were incubated overnight at 35 degrees Celsius. The presence of a zone of microorganism inhibition was measured the following day for Candida albicans and Lactobacillus acidophilus activity, respectively.

[3] = system: Gardnerella vaginalis; assay: Inhibition test in solution by plate count, Gardnerella vaginalis; assay type: cell-based; details: 7.5 mg/ml gallic acid
Description: A sample of Gardnerella vaginalis, the pathogenic bacterium found in bacterial vaginosis, was obtained from the American Type Culture Collection (ATCC), catalog number 14018. The culture medium was ATCC medium 70 and Casman's medium (BD 229010) with 5 percent rabbit blood.
A test compound of Gardnerella vaginalis was prepared in culture media to form a suspension. Control and gallic acid solutions (0.9 milliliters; 7.5 milligram gallic acid/milliliter) were filtered and added into separate culture tubes, and to these were added 0.1 milliliter of the Gardnerella vaginalis suspension at a concentration of around 10^6 cfu/milliliter. The culture tubes were incubated at 37 degrees Celsius for 24 hours.
The samples in the culture tubes were then diluted at 1, 10 and 100 times, and 100 microliters of each dilution was plated onto agar plates with WASP (Whitely Automatic Spiral Plate) spiral plating equipment from Don Whitely Scientific Limited, USA. The plates were incubated overnight at 35 degrees Celsius, and the colonies were counted on each plate by either ProtoCol® from Synbiosis, Frederick, Md., USA Whitely Scientific Limited, USA or by hand count.

[4] = system: Lactobacillus acidophilus; details: previously shown; cited from earlier work
[5] = system: Candida albicans; assay: Inhibition test in solution by measuring optical density, Candida albicans; assay type: cell-based; details: gallic acid 5 milligram/milliliter, 24 hours, FIG. 3
Description: A sample of Candida albicans, the yeast found in candidiasis, was also obtained from the American Type Culture Collection (ATCC), catalog number 10231, and was cultured in YM agar (Difco 0712) and YM broth (Difco 0711). […] Control and gallic acid solutions (0.9 milliliters) were filtered and added into separate culture tubes, and to these were added 0.1 milliliter of either the Candida albicans or Lactobacillus acidophilus suspension at a concentration of around 10^6 cfu/milliliter. The culture tubes were then incubated overnight at 37 degrees Celsius, whereafter the optical density was measured at 2, 4, 6 and 24 hours at 590 nanometers, by pippeting 100 microliters of the control or sample solutions into 96-well microplates, and then using a Molecular Devices of Sunnyvale, Calif. ThermoMax Microplate Reader to obtain the optical density readings at 590 nm wavelengths.

[6] = system: Candida albicans; assay: Zone-of-inhibition test, Candida albicans; assay type: cell-based
Description: as §1, with “Candida albicans, the yeast found” for “Lactobacillus acidophilus, a desirable bacterium”, “candidiasis,” for “the vaginal ecosystem,”, “10231,” for “4354,”, “YM agar (Difco 0712) and YM broth (Difco 0711).” for “ATCC medium 416.”

[7] = Highest concentration obtainable in water; assay type: physicochemical; details: gallic acid monohydrate, only partially water soluble
[8] = system: Trichomonas vaginalis; assay: Viable Trichomonas vaginalis cell count under a microscope; assay type: cell-based; details: for Inhibitory effect on Trichomonas vaginalis cell counts compared to control: gallic acid 0.11 percent
Description: A sample of Trichomonas vaginalis, the parasite found in trichomonas vaginitis, was obtained from the American Type Culture Collection (ATCC), catalog number 30001. The culture medium was LYI-S-2 medium (ATCC medium 2154).
A sterile LYI-S-2 medium was prepared according to the manufacturer's instructions, and the pH of this medium was adjusted to pH 6.0 using 1 N HCl. Gallic acid monohydrate (SIGMA-398225 from Signa Aldrich, USA) was dissolved in the LYI-S-2 medium. […] 0.9 milliliter of the gallic acid/LYI-S-2 solution or culture medium only (as control) was added into different culture tubes.
0.1 milliliter of Trichomonas vaginalis culture suspension, at a concentration of 1×10^6/milliliter, was added to each of the culture tubes, which were then incubated at 35 degrees Celsius on a 15 degree horizontal slant.
The viable Trichomonas vaginalis cells in each tube were counted under a microscope after 24 hours.
This procedure was repeated twice.
Essentially the same procedure was performed as described in Example 1, but this time differing concentrations of gallic acid were tested on samples of Trichomonas vaginalis. The gallic acid concentrations that were tested were: 0.11 percent, 0.66 percent and 1.1 percent. More samples in each group were included (n=4), and the effects of the gallic acid over a longer time period were also observed, i.e. after 24 and 48 hours.

[9] = 10 milligram/ml gallic acid or 0.5 percent Benzyl Quats in well, MES buffer pH 4.7, overnight 35 degrees Celsius, n = 2
[10] = zone-of-inhibition test, gallic acid 10 mg/ml, Benzyl Quats 0.5 percent

With `O=C(O)c1cc(O)c(O)c(O)c1` [gallic acid, 3,4,5-trihydroxybenzoic acid] the “Growth of Lactobacillus acidophilus by optical density at 590 nm (in words)” value [1] was “did not show any significant inhibition”, the “Zone of inhibition, Lactobacillus acidophilus” value [2, 9] was 0 millimeter and the “Effect on growth of Lactobacillus acidophilus (in words)” value [2, 10] was “did not affect the growth of Lactobacillus acidophilus”. The “Gardnerella vaginalis plate count, Average” value ([3]; 24 hours treatment, n = 4, negative control 1.81E+08, p < 0.05) was “*3.43E+04”, the inhibition at 7500 µg/mL ([3]; Gardnerella vaginalis, 24 hours of treatment, read-out: Inhibition on the growth of Gardnerella vaginalis compared to control group) was greater than 100% and the “Effect on growth of Lactobacillus acidophilus (in words)” value [4] was “does not affect the growth of Lactobacillus acidophilus”. The “Growth of Candida albicans by optical density at 590 nm (in words)” value [5] was “significantly inhibit the growth of Candida albicans”, the “Zone of inhibition, Candida albicans” value [6, 9] was 5 millimeter and the “Effect on growth of Candida albicans (in words)” value [6, 10] was “selectively inhibited Candida albicans”. For the same compound, the “Highest concentration of gallic acid that could be obtained in water” value [7] was 1.1 percent (g/100 milliliter), the “Inhibitory effect on Trichomonas vaginalis cell counts compared to control” value ([8]; 24 hours, n=4, FIG. 1) was 50% and the “Inhibitory effect on Trichomonas vaginalis cell counts compared to control” value ([8]; 48 hours, n=4, FIG. 2) was 70%. The “Live Trichomonas vaginalis cells (in words)” value ([8]; gallic acid 0.66 percent, 24 hours, n=4, Example 2) was “No live Trichomonas vaginalis cells were observed”, the “Live Trichomonas vaginalis cells (in words)” value ([8]; gallic acid 0.66 percent, 48 hours, n=4, Example 2) was “No live Trichomonas vaginalis cells were observed” and the “Live Trichomonas vaginalis cells (in words)” value ([8]; gallic acid 1.1 percent, 24 hours, Example 1) was “no live Trichomonas vaginalis cells were observed”. The “Number of Trichomonas cells, Repeat 2” value ([8]; gallic acid 1.1 percent, 24 hours, Example 1, control 1 000 000) was 0, the “Number of Trichomonas cells, Repeat 1” value ([8]; gallic acid 1.1 percent, 24 hours, Example 1, control 900 000) was 0 and the “Live Trichomonas vaginalis cells (in words)” value ([8]; gallic acid 1.1 percent, 24 hours, n=4, Example 2) was “No live Trichomonas vaginalis cells were observed”. The “Live Trichomonas vaginalis cells (in words)” value ([8]; gallic acid 1.1 percent, 48 hours, n=4, Example 2) was “No live Trichomonas vaginalis cells were observed”.
